Data taken from the NIST ThermoML archive (doi:10.1021/acs.jced.8b00427).

Settings: Liquid, Frequency=4 MHz, Pulse-echo method

FC(F)(F)/C=C/Cl [(E)-1-chloro-3,3,3-trifluoroprop-1-ene]
Settings	speed of sound [m/s]
273.14 K, 30070 kPa	936.9
273.15 K, 5030 kPa	815.43
273.15 K, 20150 kPa	892.92
273.15 K, 25090 kPa	915.36
273.16 K, 190 kPa	786.78
273.16 K, 1000 kPa	791.78
273.16 K, 10050 kPa	842.75
273.16 K, 35030 kPa	957.33
283.14 K, 5170 kPa	778.28
283.14 K, 10020 kPa	806.46
283.14 K, 24930 kPa	882.24
283.14 K, 30260 kPa	906.25
283.15 K, 190 kPa	746.74
283.16 K, 980 kPa	752.01
283.16 K, 20000 kPa	858.64
283.16 K, 34920 kPa	926.3
293.15 K, 170 kPa	707.09
293.15 K, 9990 kPa	771.05
293.15 K, 20000 kPa	826.3
293.15 K, 35000 kPa	896.92
293.16 K, 1030 kPa	713.25
293.16 K, 5090 kPa	740.63
293.16 K, 30100 kPa	875.12
313.14 K, 270 kPa	628.5
313.15 K, 5010 kPa	666.72
313.15 K, 10000 kPa	702.15
313.15 K, 19990 kPa	763.58
313.15 K, 30050 kPa	816.73
313.15 K, 34920 kPa	840.09
313.16 K, 1180 kPa	636.05
333.14 K, 5010 kPa	594.52
333.14 K, 9980 kPa	634.9
333.15 K, 19990 kPa	704.25
333.15 K, 29970 kPa	761.64
333.15 K, 35060 kPa	787.99
353.14 K, 10010 kPa	571.03
353.14 K, 15090 kPa	612.03
353.14 K, 20150 kPa	648.34
353.15 K, 24990 kPa	679.91
353.15 K, 30000 kPa	710.32
353.15 K, 35040 kPa	738.23
